Assays:
Assay in all cases: Bacterial viability of biofilm after VNB cluster disruption and tobramycin treatment
Type in all cases: cell-based
[1] = system: Burkholderia multivorans LMG18825 biofilms; settings: 70 nm AuNPs + single 7 ns pulse of 561 nm laser (2.8 J/cm2), then tobramycin 32 μg/mL for 24 hours at 37° C.; vs tobramycin alone
Method: (§1) In the study, the synergistic effect of vapour nanobubble mediated cluster disruption and antibiotic treatment was evaluated for 3 types of bacteria. As gram-negatives, Burkholderia multivorans LMG18825 and Pseudomonas aeruginosa LESB58 were selected. Staphylococcus aureus Mu50, often implicated in skin and soft tissue infections, was chosen as a challenging representative of gram-positive bacteria. AuNPs were evaluated for achieving efficient loading and disruption of biofilm clusters. […] The Bacteria are stained with SYTO59 and the gold particles were detected by reflection of the laser light.
(§2) In further experiments, the synergistic effect of VNB biofilm cluster disruption with relevant antibiotics or disinfectants is evaluated. The biofilm first received a laser treatment for cluster disruption, followed by treatment with tobramycin. Proper controls were taken into account: untreated control, only AuNPs, only laser treatment, VNBs only, AuNPs with tobramycin. Each location in the biofilm received a single 7 ns pulse of 561 nm laser light (2.8 J/cm2) followed by Tobramycin treatment at 32 μg/mL, 16 μg/mL and 1024 μg/mL for Burkholderia multivorans, Pseudomonas aeruginosa and Staphylococcus aureus biofilms, respectively. The bacterial viability following vapour nanobubble generation and antibiotic treatment is shown in FIG. 5 The different experiments are as follows: […]

[2] = system: Staphylococcus aureus Mu50 biofilms; settings: 70 nm AuNPs + single 7 ns pulse of 561 nm laser (2.8 J/cm2), then tobramycin 1024 μg/mL for 24 hours at 37° C.
Method: as §1, §2

[3] = system: Pseudomonas aeruginosa LESB58 biofilms
Method: as §1
as §2, with “respectively.” for “respectively. The bacterial viability following vapour nanobubble generation and antibiotic treatment is shown in FIG. 5 The different experiments are as follows:”
In another experiment, the effect of applying different laser pulses on the biofilm was evaluated. […]

## NC[C@H]1O[C@H](O[C@H]2[C@H](O)[C@@H](O[C@H]3O[C@H](CO)[C@@H](O)[C@H](N)[C@H]3O)[C@H](N)C[C@@H]2N)[C@H](N)C[C@@H]1O [tobramycin]
[1]
  increased eradication potency of tobramycin by use of VNBs: ~50 times
[2]
  CFU decrease of combined VNB-tobramycin treatment as compared to tobramycin alone: ~10 times
[3]; 10 laser pulses of 7 ns of 561 nm (2.8 J/cm2) per location (10× VNB formation), then tobramycin for 24 hours at 37° C.
  CFU decrease in comparison with treatment with tobramycin alone: ~4000 times
[3]; 70 nm AuNPs + single 7 ns pulse of 561 nm laser (2.8 J/cm2), then tobramycin 16 μg/mL for 24 hours at 37° C.
  CFU decrease of combined VNB-tobramycin treatment as compared to tobramycin alone: ~20 times
